The results in this text go back to ChEMBL document CHEMBL4483862, “Open-source discovery of chemical leads for next-generation chemoprotective antimalarials” (2018).

The term IC50 denotes the point on the concentration scale where inhibition reaches its midpoint. As usually defined, the IC90 is the concentration at which the effect reaches the 90% level.

This experiment deals with Plasmodium berghei. Put plainly: Luciferase/luciferin-expressing antifolate-resistant parasites were used to infect a culture of HepG2 cells that were pre-incubated with compounds. Infected hepatocytes emit light due to the luciferase reaction. Assay results are presented as the percent inhibition of light emission compared to control. […]. Format: functional. The following applies: sporozoite; for IC90: read-out: LUCIFERASE INFECTION ASSAY - IC90.

The mark [1] stands for this setting: read-out: LUCIFERASE INFECTION ASSAY - IC50.

The structures appear in SMILES notation. Where only a bound is given, the exact number is not on record here.

Turning to `CC(C)(C)c1cc(C(=O)OCC(=O)NC(c2ccccc2)c2ccccc2)cc(C(C)(C)C)c1`, the IC90 was over 10 µM. Besides, the IC50 (FFLUC_HILL_SLOPE 15.9, FFLUC_R_SQUARED 0.274, HEPG2TOX_HILL_SLOPE 1.64, HEPG2TOX_R_SQUARED 0.592, PBLUC_HILL_SLOPE 2.07, PBLUC_R_SQUARED 0.325, read-out: LUCIFERASE INFECTION ASSAY - IC50) worked out at 7.82 µM.
Regarding `Cc1cc2ccccc2n1CC(=O)NCc1ccc(NC(=O)c2ccco2)cc1`, the IC90 was over 10 µM. Also, the IC50 under setting [1] came to 5.73 µM.
Turning to `CC(=O)c1c(C)[nH]c(C(=O)Nc2nc3ccccc3[nH]2)c1C`, the concentration for an effect of 90% (IC90) was over 10 µM. Moreover, the IC50 (FFLUC_HILL_SLOPE 0.837, FFLUC_R_SQUARED 0.9, PBLUC_HILL_SLOPE 0.352, PBLUC_R_SQUARED 0.709, read-out: LUCIFERASE INFECTION ASSAY - IC50) was found to be 0.0695 µM.
Regarding `Clc1ccc(-c2csc(-c3nnc4n3-c3ccccc3SC4)n2)s1`, the IC90 was over 10 µM. Also, the IC50 (PBLUC_HILL_SLOPE 1, PBLUC_R_SQUARED 0.439, read-out: LUCIFERASE INFECTION ASSAY - IC50) was found to be 6.32 µM.
Take `O=C1c2ccccc2SC1(c1nc2ccccc2s1)c1nc2ccccc2s1`: the IC90 is 9.86 µM. Also, the IC50 (FFLUC_HILL_SLOPE 17.4, FFLUC_R_SQUARED 0.735, PBLUC_HILL_SLOPE 16.6, PBLUC_R_SQUARED 0.262, read-out: LUCIFERASE INFECTION ASSAY - IC50) came to 8.63 µM.
In the case of `Clc1ccc(-c2cnc3ccc(NCc4ccc5c(c4)OCO5)nn23)cc1`, the IC90 is over 8.71 µM. Moreover, under setting [1], the IC50 was over 8.71 µM.
With `Cc1ccc(Cn2nc(C)c3cc(C(=O)OCC(=O)c4cc(C)n(CC5CCCO5)c4C)sc32)cc1` (centres undefined), the IC90 was over 10 µM. In addition, under setting [1], the IC50 was over 10 µM.
Consider `COc1ccc(-c2ccc(CCC(=O)Nc3sccc3C#N)o2)cc1`, for which the IC90 was over 10 µM. The IC50 under setting [1] is 7.82 µM.
Regarding `Cc1cc2nc(Nc3cccc(Cl)c3)c3ccccc3n2n1`, the IC90 was over 10 µM. Also, the IC50 (HEPG2TOX_HILL_SLOPE 10.5, HEPG2TOX_R_SQUARED 0.708, PBLUC_HILL_SLOPE 3.62, PBLUC_R_SQUARED 0.793, read-out: LUCIFERASE INFECTION ASSAY - IC50) was 7.73 µM.
Regarding `N#Cc1c(SCC(=O)c2ccccc2)nc2c(c1-c1ccccc1)CCCC2`, the IC90 is 6.39 µM. Also, the IC50 (HEPG2TOX_HILL_SLOPE 0.131, HEPG2TOX_R_SQUARED 0.0459, PBLUC_HILL_SLOPE 1.72, PBLUC_R_SQUARED 0.594, read-out: LUCIFERASE INFECTION ASSAY - IC50) was 1.78 µM.
For the compound `O=C1NC(c2ccccc2)=C(C(=O)C(F)(F)F)C(c2ccc(OC(F)F)cc2)N1` (centres undefined), the IC90 was over 10 µM. The IC50 under setting [1] was over 10 µM.
In the case of `Cc1cc2oc(=O)cc(CN3CCN(S(=O)(=O)c4ccc([N+](=O)[O-])cc4)CC3)c2cc1Cl`, the concentration for an effect of 90% (IC90) amounted to 8.57 µM. Under setting [1], the IC50 is 4.19 µM.
With `O=C(CN1c2cccc3cccc(c23)S1(=O)=O)Nc1ccc(-c2nc3ccccc3[nH]2)cc1`, the IC90 is over 10 µM. Moreover, under setting [1], the IC50 was over 10 µM.
Consider `FC(F)Sc1ccc2nc3ccccc3c(N3CCOCC3)c2c1`, for which the IC90 is 0.134 µM. Further, the IC50 (PBLUC_HILL_SLOPE 15.6, PBLUC_R_SQUARED 0.79, read-out: LUCIFERASE INFECTION ASSAY - IC50) was determined as 0.117 µM.
Take `Cn1c(-c2ccccc2)nc2cnc(-c3cccc(Cl)c3)cc21`: the IC90 worked out at 3.69 µM. Moreover, the IC50 (HEPG2TOX_HILL_SLOPE 2.23, HEPG2TOX_R_SQUARED 0.754, PBLUC_HILL_SLOPE 11.6, PBLUC_R_SQUARED 0.591, read-out: LUCIFERASE INFECTION ASSAY - IC50) came to 3.06 µM.
Take `CC(C)(C)C(=O)Nc1ccc([N+](=O)[O-])cc1C#N`: the IC90 stood at 4.31 µM. Besides, for the setting “PBLUC_HILL_SLOPE 2.44, PBLUC_R_SQUARED 0.671, read-out: LUCIFERASE INFECTION ASSAY - IC50”, the IC50 came out at 1.75 µM.
On to `Cc1[nH]c2ccccc2c1C(=O)C(C)Sc1ccc2c(c1)OCCCO2` (centres undefined), for which the IC90 is over 10 µM. Also, the IC50 (PBLUC_HILL_SLOPE 1.73, PBLUC_R_SQUARED 0.284, read-out: LUCIFERASE INFECTION ASSAY - IC50) worked out at 3.18 µM.
Consider `O=C(CN1CCC(C(=O)Nc2ccccc2O)CC1)Nc1nc(-c2cccc([N+](=O)[O-])c2)cs1`, for which the IC90 was over 10 µM. For the same compound, the IC50 (PBLUC_HILL_SLOPE 3.03, PBLUC_R_SQUARED 0.0575, read-out: LUCIFERASE INFECTION ASSAY - IC50) is 6.47 µM.
For the compound `COc1ccc(CNC(=O)/C=C/c2csc(N(C(C)=O)c3cccc(C(F)(F)F)c3)n2)cc1`, the IC90 was over 10 µM. Moreover, the IC50 under setting [1] was over 10 µM.
Consider `Cc1ccc(-n2c(SCC(=O)N3c4ccc(S(N)(=O)=O)cc4CC3C)nc3ccccc32)cc1` (centres undefined), for which the IC90 was over 10 µM. Also, the IC50 (FFLUC_HILL_SLOPE 2.97, FFLUC_R_SQUARED 0.377, PBLUC_HILL_SLOPE 1.55, PBLUC_R_SQUARED 0.53, read-out: LUCIFERASE INFECTION ASSAY - IC50) is 5.31 µM.
As for `O=c1c2c(-c3ccccc3)csc2nc2c3ccccc3c(NCCO)nn12`, the IC90 was over 10 µM. The IC50 under setting [1] was over 10 µM.
Take `CCOC(=O)CCCNC(=O)COC(=O)c1cc(-c2ccco2)nc2ccccc12`: the IC90 is over 10 µM. For the same compound, the IC50 under setting [1] is over 10 µM.
Consider `FC(F)(F)c1cnc(-n2cccc2/C=N/Nc2nc3ccccc3nc2C(F)(F)F)c(Cl)c1`, for which the IC90 was over 6.81 µM. For the same compound, the IC50 (FFLUC_HILL_SLOPE 4.66, FFLUC_R_SQUARED 0.46, HEPG2TOX_HILL_SLOPE 16.5, HEPG2TOX_R_SQUARED 0.459, PBLUC_HILL_SLOPE 3.99, PBLUC_R_SQUARED 0.83, read-out: LUCIFERASE INFECTION ASSAY - IC50) is 4.16 µM.
With `CCc1c(C(=O)/C=C/c2cc(OC)c(O)c(OC)c2)oc2ccc(C)cc12`, the IC90 came out at 7.96 µM. For the same compound, the IC50 (PBLUC_HILL_SLOPE 25.7, 54.1, PBLUC_R_SQUARED 0.301, 0.609, read-out: LUCIFERASE INFECTION ASSAY - IC50) was found to be 7.44 µM.
For `CC(C)c1noc(COC(=O)c2ccc(-c3ccc(O)cc3)cc2)n1`, the IC90 was over 10 µM. Besides, the IC50 under setting [1] was over 10 µM.
Regarding `Cc1cc(-c2cc(C(=O)N3CCCN(C)c4nc5ccccc5nc43)c3c(C)noc3n2)c(C)s1`, the IC90 came to 0.385 µM. Moreover, the IC50 (PBLUC_HILL_SLOPE 42.2, PBLUC_R_SQUARED 0.606, read-out: LUCIFERASE INFECTION ASSAY - IC50) was found to be 0.366 µM.
Consider `COc1ccc(N/N=C2\C=CC(=O)c3ncccc32)cc1`, for which the IC90 was over 10 µM. In addition, the IC50 (HEPG2TOX_HILL_SLOPE 8.38, HEPG2TOX_R_SQUARED 0.289, PBLUC_HILL_SLOPE 16, PBLUC_R_SQUARED 0.427, read-out: LUCIFERASE INFECTION ASSAY - IC50) was found to be 9.1 µM.
Turning to `COCCn1c(SC(C)C(=O)NCC2CCCO2)nc2scc(-c3ccc(F)cc3)c2c1=O` (centres undefined), the IC90 was over 10 µM. Further, the IC50 under setting [1] was over 10 µM.
As for `Clc1ccc(-c2cnc3cnc(-c4ccc(NCCN5CCOCC5)nc4)cn23)cc1`, the IC90 was 7.4 µM. Under “HEPG2TOX_HILL_SLOPE 7.91, HEPG2TOX_R_SQUARED 0.577, PBLUC_HILL_SLOPE 49, PBLUC_R_SQUARED 0.381, read-out: LUCIFERASE INFECTION ASSAY - IC50”, the IC50 worked out at 7.08 µM.
For `CCOC(=O)/C(=C\c1ccc(Cl)c([N+](=O)[O-])c1)C1=Nn2c(nnc2-c2cccs2)SC1`, the IC90 was over 10 µM. Further, the IC50 under setting [1] was over 10 µM.
With `Cc1nc(C(=O)N2CCc3c(c(C(=O)NCc4ccccn4)nn3CCc3ccccc3)C2)cs1`, the concentration for an effect of 90% (IC90) amounted to 2.47 µM. Moreover, the IC50 (PBLUC_HILL_SLOPE 26.7, PBLUC_R_SQUARED 0.676, read-out: LUCIFERASE INFECTION ASSAY - IC50) was 2.27 µM.
Regarding `O=C(Nc1ccc(OC(F)(F)F)cc1)c1ccc2c(c1)no[n+]2[O-]`, the IC90 was 7.89 µM. Moreover, the IC50 (HEPG2TOX_HILL_SLOPE 13, HEPG2TOX_R_SQUARED 0.448, PBLUC_HILL_SLOPE 2.82, PBLUC_R_SQUARED 0.324, read-out: LUCIFERASE INFECTION ASSAY - IC50) came to 3.62 µM.
Consider `COCc1[nH]n2c3cccc(=O)c-3nnc2c1-c1ccccc1`, for which the IC90 was 8.25 µM. The IC50 (HEPG2TOX_HILL_SLOPE 2.72, HEPG2TOX_R_SQUARED 0.697, PBLUC_HILL_SLOPE 5.05, PBLUC_R_SQUARED 0.588, read-out: LUCIFERASE INFECTION ASSAY - IC50) came out at 5.34 µM.
As to `CSc1sc(-c2nc(C)cs2)c(C)c1-c1ccnc(SCc2c(Cl)cccc2Cl)n1`, the IC90 is over 6.46 µM. Moreover, the IC50 (FFLUC_HILL_SLOPE 1.79, FFLUC_R_SQUARED 0.514, read-out: LUCIFERASE INFECTION ASSAY - IC50) is over 6.46 µM.
For `Cc1cc(C(=O)Cn2c(CO)nc3ccccc32)c(C)n1-c1ccccc1`, the IC90 was over 10 µM. Besides, the IC50 (HEPG2TOX_HILL_SLOPE 1.51, HEPG2TOX_R_SQUARED 0.587, PBLUC_HILL_SLOPE 1.38, 1.35, PBLUC_R_SQUARED 0.541, 0.883, read-out: LUCIFERASE INFECTION ASSAY - IC50) worked out at 3.87 µM.
As for `Cc1ccc(CNc2nc(NCc3cccs3)nc3ccsc23)c(C)c1`, the IC90 was 1.63 µM. Further, the IC50 (PBLUC_HILL_SLOPE 356, PBLUC_R_SQUARED 0.443, read-out: LUCIFERASE INFECTION ASSAY - IC50) was 1.62 µM.
As for `C=CC/N=c1\scc(-c2ccc(OC(F)F)cc2)n1/N=C/c1ccc(O)cc1O`, the IC90 was over 10 µM. Moreover, where the note is “PBLUC_HILL_SLOPE 2.81, PBLUC_R_SQUARED 0.0539, read-out: LUCIFERASE INFECTION ASSAY - IC50”, the IC50 is over 10 µM.
